# Laboratory results published in US8916540B2, “Antibiotic compositions and related screening methods” (Academia Sinica, priority 2008, dated 2014).
# Where two headings read alike, the source gives them in different places.
# Key:
# [1] = biological target: PBP2a from Enterococcus faecalis; experiment: SPR moenomycin binding to immobilized full-length PBP; details: steady-state affinity, average values, read-out: SPR_KD
# [2] = tested on: Enterococcus faecalis; details: literature citation 31; cited from earlier work
# [3] = tested on: Neisseria gonorrhoeae; details: literature citation 28; cited from earlier work
# [4] = tested on: Bordetella pertussis; experiment: Minimal inhibitory concentration (MIC) determination; format: cell-based
# [5] = tested on: Pseudomonas aeruginosa; experiment: as above; format: cell-based
# [6] = tested on: Escherichia coli; experiment: as above; format: cell-based
# [7] = tested on: Bacillus subtilis; experiment: as above; format: cell-based
# Method: (§1) The minimal inhibitory concentration (MIC) of tested compounds was determined following the NCCLS standard. The experiments were conducted in 96-well microtiter plates using two-fold dilutions in Muller-Hilton broth with (Streptococcus pneumonia) or without blood (Bacillus subtilis, Enterococcus faecalis, Staphylococcus aureus). Exponentially growing cells at 5×10^5 cells/ml were incubated with test compounds at various concentrations.
# [8] = tested on: Enterococcus faecalis; experiment: as above; format: cell-based
# Method: as §1
# [9] = tested on: Staphylococcus aureus; experiment: as above; format: cell-based
# Method: as §1
# [10] = tested on: Streptococcus pneumoniae; experiment: as above; format: cell-based
# Method: as §1
# [11] = tested on: Bacillus subtilis; details: literature citation 30; cited from earlier work
# [12] = tested on: Shigella flexneri; details: literature citation 28; cited from earlier work
# [13] = tested on: Helicobacter pylori; details: literature citation 29; cited from earlier work
# [14] = tested on: Klebsiella pneumoniae; experiment: Minimal inhibitory concentration (MIC) determination; format: cell-based
# [15] = tested on: Clostridium difficile; experiment: as above; format: cell-based
# [16] = tested on: Clostridium difficile; details: literature citation 30; cited from earlier work
# [17] = tested on: Escherichia coli; details: literature citation 28; cited from earlier work
# [18] = biological target: PBP1b from Citrobacter freundii; experiment: SPR moenomycin binding to immobilized full-length PBP; details: steady-state affinity, average values, read-out: SPR_KD
# [19] = tested on: Salmonella enterica; details: literature citation 38; cited from earlier work
# [20] = tested on: Salmonella enterica; experiment: Minimal inhibitory concentration (MIC) determination; format: cell-based
# [21] = tested on: Pseudomonas aeruginosa; details: literature citation 28; cited from earlier work
# [22] = tested on: Klebsiella pneumoniae; details: literature citation 28; cited from earlier work
# [23] = tested on: Enterococcus faecium; details: literature citation 10; cited from earlier work
# [24] = tested on: Citrobacter freundii; details: literature citation 28; cited from earlier work
# [25] = biological target: PBP2a from Enterococcus faecalis; experiment: Fluorescence anisotropy direct binding assay; details: FA direct binding, 100 nM F-Moe, 10 mM Tris pH 8.0, 100 mM NaCl; read-out: FA_KD
# Method: Fluorescence anisotropy measurements were carried out in triplicates in the wells of 384-well plates using a laser fluorimetry equipped with a 488 nm laser (IsoCyte, Blueshift Biotech, Inc., Sunnyvale, Calif., USA). Various buffers, salts, pH values, and divalent cations (Ca^++, Mg^++, Co^++) were optimized for fluorescence anisotropy measurements. […] The scanning focus was above the plate bottom to avoid detection interferences. Data analysis was performed with the proprietary software, BlueImage (Blueshift Biotech Inc). Fluorescence anisotropy values (A) were calculated using the equation: A=(/∥−G*/⊥)/(/∥+2G*/⊥), where /∥ is the fluorescence intensity of emitted light parallel to excitation, /⊥ is the fluorescence intensity of emitted light perpendicular to excitation, and G is the […] that corrects for instrument bias. The G factor is experimentally determined for each run using the probe-only well as the basal an isotropy.
# For direct binding assay, the initial condition contained 40 μl of 100 nM F-Moe in 10 mM Tris, pH 8.0, 100 mM NaCl. After a small volume of PBP stock was added, the anisotropy change was measured after a 5-minute equilibration. We assume that the direct titration follows a simple binding equilibrium between Ligand (L) and Receptor (R)
# [formula] […]
substance,measurement,setting,value
Moenomycin A [Compound 1],Kd,[1],0.619 µM
same,Reported values MIC,[2],0.1 µM
same,Reported values MIC,[3],1.69 µM
same,MIC,[4],0.011 to 0.021 µM
same,MIC,[5],40 µM
same,MIC,[6],80 µM
same,MIC,"[7]; B. subtilis ATCC23857, Muller-Hilton broth, 18 h to 24 h, 37° C., read-out: MIC B. subtilis (ATCC23857)",0.33 µM
same,MIC,[7]; Bacillus subtilis (Table 1),0.3 to 0.6 µM
same,MIC,"[8]; E. faecalis ATCC29212, Muller-Hilton broth, 18 h to 24 h, 37° C., read-out: MIC E. faecalis (ATCC29212)",0.04 µM
same,MIC,[8]; Enterococcus faecalis (Table 1),0.075 to 0.3 µM
same,MIC,"[9]; S. aureus ATCC29213, Muller-Hilton broth, 18 h to 24 h, 37° C., read-out: MIC S. aureus (ATCC29213)",<0.01 µM
same,MIC,[9]; Staphylococcus aureus (Table 1),0.075 µM
same,MIC,"[10]; S. pneumoniae ATCC49619, Muller-Hilton broth with blood, 18 h to 24 h, 37° C., read-out: MIC S. pneumoniae (ATCC49619)",0.33 µM
same,MIC,[10]; Streptococcus pneumoniae (Table 1),0.625 µM
same,Reported values MIC,[11],0.07 to 0.43 µM
same,Reported values MIC,[12],27.5 to 110 µM
same,Reported values MIC,[13],1.3 µM
same,MIC,[14],80 µM
same,MIC,[15],>160 µM
same,Reported values MIC,[16],220 to 440 µM
same,Reported values MIC,[17],55 to 110 µM
same,Kd,[18],0.728 µM
same,Reported values MIC,[19],13.75 to 110 µM
same,MIC,[20],160 µM
same,Reported values MIC,[21],55 to 110 µM
same,Reported values MIC,[22],13.75 to 27.5 µM
same,Reported values MIC,[23],>40.5 µM
same,Reported values MIC,[24],352 µM
same,Kd,[25],0.276 ± 0.014 µM
